Experimental findings from ChEMBL document CHEMBL2407053, “Pharbinilic acid, an allogibberic acid from morning glory (Pharbitis nil)” (J Nat Prod, 2013) are described below.

One data set has as its system SK-OV-3. The data set can be described thus: Cytotoxicity against human SKOV3 cells by sulforhodamine B assay. In kind it is functional, cell-based. A general note: Sulforhodamine B stains cellular protein and so reports cell mass.
The next data set deals with SK-MEL-2. Put plainly: Cytotoxicity against human SK-MEL-2 cells by sulforhodamine B assay. Format: functional, cell-based.
The next data set concerns HCT-15. The data set can be described thus: Cytotoxicity against human HCT15 cells by sulforhodamine B assay. Format: functional, cell-based.
Data set [1] deals with BV-2. The data set can be described thus: Cytotoxicity against mouse BV2 cells by MTT assay. In kind it is cell-based.
In data set [2] the test system is BV-2. The data set can be described thus: Antiinflammatory activity against mouse BV2 cells assessed as inhibition of LPS-induced NO production incubated for 30 mins prior to LPS-challenge measured after 24 hrs by Griess assay. In kind it is functional, cell-based.
A further data set relates to A549. The data set can be described thus: Cytotoxicity against human A549 cells by sulforhodamine B assay. Format: functional, cell-based.

One may read the IC50 as the concentration at which inhibition is half-maximal.

Molecules are shown by their SMILES.

In the case of `C=C1C[C@]23C[C@@]1(O)CC[C@H]2c1cc2c(C(=O)O)coc2c(C)c1[C@@H]3C(=O)O`, the IC50 in the data set with SK-OV-3 came out at 4.83 µM; with SK-MEL-2 it was 8.36 µM; with HCT-15 it was 6.79 µM; in the data set with BV-2 [2] it was 32.9 µM; in the data set with A549 it was 15.7 µM. Further, the Activity result in the data set on BV-2 [1] is on record as “Non-toxic”.
